Assay results from US9085603B2, “Progesterone receptor antagonists” (Bayer Intellectual Property GmbH, priority 2010, dated 2015).
Values belong to the compound of their own block, whether it stands above or below them.

Legend:
[1] = test system: pregnant rats; test: Abortive test on female rats (termination of early pregnancy); format: in vivo, rat; details: for Abortion rate: d5-d7 p.c., autopsy d9 p.c.
Description: The antagonistic effect of the compounds according to the invention was tested on pregnant rats (6 rats per group) on day (d) 5 to 7 post coitum (p.c.) under conventional keeping and feeding conditions.
After successful pairing, the pregnant animals (presence of sperm in the vaginal smear on day 1 of the pregnancy=d1 p.c.) were randomized and divided into the treatment group and the control group. The animals were then given, subcutaneously or orally, in each case 0.15; 0.5; 1.5 or 5 mg/kg of the test compound or […] of vehicle (benzyl benzoate/ricinus oil: 1+4 [v/v]) daily from day 5 to day 7 (d5-d7 p.c.).
The autopsy was carried out on day 9 (d9 p.c.). As the parameter of the progesterone receptor antagonistic effect, the uterus was investigated with regard to the presence of nidation sites. Here, the complete lack of nidation sites, but also the presence of pathological, haemmorhagic or otherwise abnormal nidation sites, on day 9 (d9 p.c.) was evaluated as an abortion.

[2] = molecular target: T1, human progesterone receptor A (Homo sapiens, UniProt P06401); test: Progesterone receptor antagonistic effect in stably transfected SK-N-MC cells, MTV-LUC reporter (PR-A); format: cell-based; details: antagonism of 0.1 nmol/l promegestone, luciferase reporter, 24 hours
T1 construct: expressed in transfected cells; host or cells: SK-N-MC human neuroblastoma cells, stably transfected with pRChPR-A-neo and pMMTV-LUC
T1 sequence (P06401 1-769 isoform P06401-2): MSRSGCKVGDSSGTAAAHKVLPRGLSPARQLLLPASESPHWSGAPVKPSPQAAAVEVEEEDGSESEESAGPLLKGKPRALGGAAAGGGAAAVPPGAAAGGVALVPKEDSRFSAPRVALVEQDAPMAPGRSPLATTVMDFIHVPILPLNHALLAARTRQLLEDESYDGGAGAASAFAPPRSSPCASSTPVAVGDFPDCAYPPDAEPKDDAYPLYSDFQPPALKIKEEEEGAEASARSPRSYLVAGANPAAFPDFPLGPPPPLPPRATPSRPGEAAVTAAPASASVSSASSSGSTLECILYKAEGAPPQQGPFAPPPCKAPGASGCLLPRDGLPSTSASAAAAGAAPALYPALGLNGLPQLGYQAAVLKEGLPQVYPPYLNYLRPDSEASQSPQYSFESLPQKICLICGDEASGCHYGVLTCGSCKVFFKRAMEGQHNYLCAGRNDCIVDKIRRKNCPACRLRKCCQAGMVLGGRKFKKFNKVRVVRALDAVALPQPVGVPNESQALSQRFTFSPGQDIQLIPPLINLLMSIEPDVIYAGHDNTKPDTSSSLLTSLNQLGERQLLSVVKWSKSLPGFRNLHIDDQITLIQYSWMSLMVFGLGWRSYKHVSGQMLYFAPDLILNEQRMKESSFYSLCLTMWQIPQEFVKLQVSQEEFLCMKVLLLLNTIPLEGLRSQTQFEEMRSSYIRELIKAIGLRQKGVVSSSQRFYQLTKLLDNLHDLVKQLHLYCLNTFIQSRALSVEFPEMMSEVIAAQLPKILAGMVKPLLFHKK
In short: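 Stably transfected SK-N-MC cells with PR-A or PR-B and MMTV-LUC reporter, treated 24 h with 0.1 nmol/l promegestone plus test compound at 0.01 nmol/l–1 μmol/l. Luciferase in cell lysates read as RLU; values given as percentage efficacy and IC50.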

[3] = molecular target: T2, human progesterone receptor B (Homo sapiens, UniProt P06401); test: Progesterone receptor antagonistic effect in stably transfected SK-N-MC cells, MTV-LUC reporter (PR-B); format: cell-based; details: antagonism of 0.1 nmol/l promegestone, luciferase reporter, 24 hours
T2 construct: expressed in transfected cells; host or cells: SK-N-MC human neuroblastoma cells, stably transfected with pRChPR-B-neo and pMMTV-LUC
T2 sequence (P06401 1-933): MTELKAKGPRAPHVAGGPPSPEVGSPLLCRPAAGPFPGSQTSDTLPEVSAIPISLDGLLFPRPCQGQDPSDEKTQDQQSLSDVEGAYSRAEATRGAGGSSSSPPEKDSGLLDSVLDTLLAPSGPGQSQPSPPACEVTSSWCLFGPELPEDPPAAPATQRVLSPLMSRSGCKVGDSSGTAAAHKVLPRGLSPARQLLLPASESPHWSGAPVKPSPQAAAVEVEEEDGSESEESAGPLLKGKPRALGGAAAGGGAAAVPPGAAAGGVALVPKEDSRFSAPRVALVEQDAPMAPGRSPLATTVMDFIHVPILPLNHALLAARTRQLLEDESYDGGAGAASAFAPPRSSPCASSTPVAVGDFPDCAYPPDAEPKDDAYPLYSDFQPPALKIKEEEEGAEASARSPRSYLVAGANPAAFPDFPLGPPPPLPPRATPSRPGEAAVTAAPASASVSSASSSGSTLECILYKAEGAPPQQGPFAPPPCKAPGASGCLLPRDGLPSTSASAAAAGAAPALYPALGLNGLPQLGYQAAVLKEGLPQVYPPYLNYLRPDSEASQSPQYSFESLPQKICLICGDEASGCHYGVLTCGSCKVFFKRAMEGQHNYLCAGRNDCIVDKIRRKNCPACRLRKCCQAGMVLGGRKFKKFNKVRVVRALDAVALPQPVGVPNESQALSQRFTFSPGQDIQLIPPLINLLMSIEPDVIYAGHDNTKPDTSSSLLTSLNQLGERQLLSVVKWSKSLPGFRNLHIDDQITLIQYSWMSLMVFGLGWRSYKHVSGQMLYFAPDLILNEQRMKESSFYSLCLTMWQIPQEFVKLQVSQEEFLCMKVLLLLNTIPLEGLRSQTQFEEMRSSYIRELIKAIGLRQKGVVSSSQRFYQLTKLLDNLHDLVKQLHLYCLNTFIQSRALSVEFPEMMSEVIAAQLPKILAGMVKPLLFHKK
Description: Progesterone Receptor Antagonistic Effect in Stable Transfectants of Human Neuroblastoma Cells (SK-N-MC cells) with the Human Progesterone A or Progesterone B Receptor and a MTV-LUC Reporter Construct
SK-N-MC cells (human neuroblastoma cells), which have been stably transfected with plasmids which express the human progesterone receptor B (pRChPR-B-neo) or the human progesterone receptor A (pRChPR-A-neo) and a reporter construct (pMMTV-LUC), were incubated for 24 hours either in the absence (negative control) or in the presence of increasing amounts of the particular test compound (0.01 nmol/l, 0.1 nmol/l, 1 nmol/l, 10 nmol/l, 100 nmol/l and 1 μmol/l) in order to determine the agonistic efficacy. As a positive control of the reporter gene induction, the cells were treated with the synthetic gestagen promegestone (0.01 nmol/l, 0.1 nmol/l, 1 nmol/l, 10 nmol/l, 100 nmol/l and 1 μmol/l). To determine the antagonistic activity, the cells were treated with 0.1 nmol/l of promegestone and additionally with increasing amounts of the particular test compound (0.01 nmol/l, 0.1 nmol/l, 1 nmol/l, 10 nmol/l, 100 nmol/l and 1 μmol/l). The activity of the reporter gene LUC (LUC=luciferase) was determined in the cell lysates and measured as RLU (relative light units). All measurement values are given as percentage efficacy and as EC50 or IC50 concentrations.

[4] = cited from earlier work
[5] = test system: uterus fibroids; details: several clinical studies; cited from earlier work

IC50 [2]: 170 pM
IC50 [3]: 100 pM
SMILES: C[C@]12C[C@H](c3ccc(CN4CCN(S(C)(=O)=O)CC4)cc3)C3=C4CCC(=O)C=C4CC[C@H]3[C@@H]1CC[C@@]2(O)C(F)(F)C(F)(F)F [Example 12, (11β,17β)-17-Hydroxy-11-(4-{[4-(methylsulphonyl)piperazin-1-yl]methyl}phenyl)-17-(pentafluoroethyl)estra-4,9-dien-3-one]
Abortion rate ([1]; daily dose 0.5 mg/kg p.o.): 100%
Abortion rate ([1]; daily dose 1.5 mg/kg p.o.): 100%
Abortion rate ([1]; daily dose 5.0 mg/kg p.o.): 100%
In vivo properties in preclinical tests ([1]; preclinical tests, not further specified): exceptional in vivo properties

SMILES: CN(C)c1ccc([C@H]2C[C@]3(C)[C@@H](CC[C@]3(O)CCCO)[C@@H]3CCC4=CC(=O)CCC4=C32)cc1 [Onapristone, onapristone]
Liver function tests ([4]; clinical studies, some patients): abnormalities in liver function tests were observed

SMILES: CC#C[C@]1(O)CC[C@H]2[C@@H]3CCC4=CC(=O)CCC4=C3[C@@H](c3ccc(N(C)C)cc3)C[C@@]21C [mifepristone]
Effect on uterus fibroids [5]: significant shrinkage of uterus fibroids
Symptoms associated with uterus fibroids [5]: significant reduction in the symptoms

SMILES: COCC(=O)[C@@]1(OC(C)=O)CC[C@H]2[C@@H]3CCC4=CC(=O)CCC4=C3[C@@H](c3ccc(N(C)C)cc3)C[C@@]21C [proellex]
Effect on uterus fibroids [5]: significant shrinkage of uterus fibroids
Symptoms associated with uterus fibroids [5]: significant reduction in the symptoms
Liver enzymes ([4]; relatively high dosages): induction of liver enzymes
